Results: ChEMBL document CHEMBL4311945, “Development of Dual Chitinase Inhibitors as Potential New Treatment for Respiratory System Diseases” (J Med Chem, 2019)
Converted amounts (≈) assume the structure as drawn.

Columns and labels:
Chitotriosidase-1 [1] = target: Chitotriosidase-1 (Mus musculus, UniProt Q9D7Q1); experiment: Inhibition of full-length C-terminal his-tagged mouse CHIT1 expressed in CHO-K1 cells assessed as reduction in chitinolytic activity using 4-methylumbelliferyl-beta-D-N,N',N\"-triacetylchitotrioside as substrate after 60 mins by fluorometric assay; assay type: cell-based
Sequence of Chitotriosidase-1 (Mus musculus, UniProt Q9D7Q1) (Q9D7Q1 whole entry): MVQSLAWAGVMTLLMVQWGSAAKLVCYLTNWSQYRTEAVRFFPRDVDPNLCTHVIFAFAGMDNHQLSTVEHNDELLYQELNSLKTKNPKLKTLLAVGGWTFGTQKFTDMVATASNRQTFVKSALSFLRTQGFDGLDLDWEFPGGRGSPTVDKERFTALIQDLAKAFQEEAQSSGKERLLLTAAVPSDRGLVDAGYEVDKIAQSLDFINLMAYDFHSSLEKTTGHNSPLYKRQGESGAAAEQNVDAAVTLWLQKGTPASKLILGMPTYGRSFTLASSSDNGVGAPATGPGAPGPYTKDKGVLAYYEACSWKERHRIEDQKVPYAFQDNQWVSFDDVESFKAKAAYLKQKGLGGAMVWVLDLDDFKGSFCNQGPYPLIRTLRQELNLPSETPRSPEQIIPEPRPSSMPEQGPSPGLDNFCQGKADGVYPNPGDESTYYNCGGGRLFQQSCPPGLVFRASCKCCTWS

[2] = target: Acidic mammalian chitinase (Mus musculus, UniProt Q91XA9); experiment: Inhibition of full-length C-terminal his-tagged mouse acidic mammalian chitinase expressed in CHO-K1 cells assessed as reduction in chitinolytic activity using 4-methylumbelliferyl-beta-D-N,N'-diacetylchitobioside hydrate as substrate after 60 mins by fluorometric assay
Sequence of Acidic mammalian chitinase (Mus musculus, UniProt Q91XA9) (Q91XA9 whole entry): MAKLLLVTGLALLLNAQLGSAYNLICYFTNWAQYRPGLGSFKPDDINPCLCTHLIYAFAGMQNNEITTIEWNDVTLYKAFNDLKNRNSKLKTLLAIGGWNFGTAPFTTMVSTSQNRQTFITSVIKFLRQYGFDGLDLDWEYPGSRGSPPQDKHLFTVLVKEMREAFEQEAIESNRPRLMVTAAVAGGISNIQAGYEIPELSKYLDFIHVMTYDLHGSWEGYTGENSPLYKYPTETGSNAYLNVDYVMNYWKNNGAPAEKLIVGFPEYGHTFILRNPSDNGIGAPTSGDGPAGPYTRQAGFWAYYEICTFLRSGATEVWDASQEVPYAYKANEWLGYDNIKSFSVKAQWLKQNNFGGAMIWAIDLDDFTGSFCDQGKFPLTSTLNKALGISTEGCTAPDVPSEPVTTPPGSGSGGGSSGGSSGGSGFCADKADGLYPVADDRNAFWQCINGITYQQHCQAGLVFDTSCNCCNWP

Chitotriosidase-1 [3] = target: Chitotriosidase-1 (Homo sapiens, UniProt Q13231); experiment: Inhibition of full-length C-terminal his-tagged human CHIT1 expressed in CHOK1 cells assessed as reduction in chitinolytic activity using 4-methylumbelliferyl-beta-D-N,N',N\"-triacetylchitotrioside as substrate after 60 mins by fluorometric assay; assay type: cell-based
Sequence of Chitotriosidase-1 (Homo sapiens, UniProt Q13231) (Q13231 whole entry): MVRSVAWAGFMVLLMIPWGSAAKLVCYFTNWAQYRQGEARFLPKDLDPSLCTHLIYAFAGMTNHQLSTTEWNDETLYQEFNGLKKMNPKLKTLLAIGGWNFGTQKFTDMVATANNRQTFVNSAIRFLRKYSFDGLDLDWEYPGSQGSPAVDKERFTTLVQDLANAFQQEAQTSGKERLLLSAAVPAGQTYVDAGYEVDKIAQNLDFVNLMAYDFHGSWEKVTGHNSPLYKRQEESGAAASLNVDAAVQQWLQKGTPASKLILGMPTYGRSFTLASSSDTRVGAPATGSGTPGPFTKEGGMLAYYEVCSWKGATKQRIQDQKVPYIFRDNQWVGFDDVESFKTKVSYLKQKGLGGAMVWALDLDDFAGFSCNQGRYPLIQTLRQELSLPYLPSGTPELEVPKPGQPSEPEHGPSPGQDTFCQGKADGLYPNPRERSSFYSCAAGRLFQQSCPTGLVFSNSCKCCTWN

[4] = target: T1, Voltage-gated inwardly rectifying potassium channel KCNH2 (Homo sapiens, UniProt Q12809); experiment: Displacement of Tracer Red from human ERG by fluorescence polarization assay
T1 sequence (Q12809 whole entry): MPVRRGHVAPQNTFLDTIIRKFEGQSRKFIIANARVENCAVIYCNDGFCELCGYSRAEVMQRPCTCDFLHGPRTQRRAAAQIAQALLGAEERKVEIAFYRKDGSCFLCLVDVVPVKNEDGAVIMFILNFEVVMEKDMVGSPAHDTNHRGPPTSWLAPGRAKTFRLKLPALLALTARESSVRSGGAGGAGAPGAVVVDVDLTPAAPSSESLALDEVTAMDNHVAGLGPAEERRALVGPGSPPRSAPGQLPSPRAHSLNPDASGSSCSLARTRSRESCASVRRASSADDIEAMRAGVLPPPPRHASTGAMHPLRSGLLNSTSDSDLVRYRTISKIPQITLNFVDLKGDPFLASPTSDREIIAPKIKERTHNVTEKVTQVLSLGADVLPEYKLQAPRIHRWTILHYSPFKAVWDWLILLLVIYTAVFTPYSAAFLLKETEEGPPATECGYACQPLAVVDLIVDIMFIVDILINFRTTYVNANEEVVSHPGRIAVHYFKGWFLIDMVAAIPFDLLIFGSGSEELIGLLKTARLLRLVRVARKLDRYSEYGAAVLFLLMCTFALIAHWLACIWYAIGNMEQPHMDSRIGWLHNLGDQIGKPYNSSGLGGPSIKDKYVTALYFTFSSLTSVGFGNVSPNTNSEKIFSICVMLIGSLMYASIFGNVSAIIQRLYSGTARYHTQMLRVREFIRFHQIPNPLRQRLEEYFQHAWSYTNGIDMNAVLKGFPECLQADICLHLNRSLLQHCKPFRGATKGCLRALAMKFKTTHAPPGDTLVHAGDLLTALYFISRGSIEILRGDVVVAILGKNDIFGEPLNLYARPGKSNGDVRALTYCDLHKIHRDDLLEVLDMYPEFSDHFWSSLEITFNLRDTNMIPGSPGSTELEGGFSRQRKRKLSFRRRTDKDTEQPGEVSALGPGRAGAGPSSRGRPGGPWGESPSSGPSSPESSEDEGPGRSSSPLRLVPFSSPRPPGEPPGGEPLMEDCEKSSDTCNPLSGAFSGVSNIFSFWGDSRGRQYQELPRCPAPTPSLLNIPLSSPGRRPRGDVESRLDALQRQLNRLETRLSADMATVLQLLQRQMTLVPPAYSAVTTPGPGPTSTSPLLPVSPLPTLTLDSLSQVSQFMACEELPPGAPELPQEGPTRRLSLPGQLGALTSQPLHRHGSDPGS

[5] = Lipophilicity, logD of the compound at pH 7.4; assay type: physicochemical; details: buffer
[6] = target: dopamine transporter (DAT) (Homo sapiens, UniProt Q01959); experiment: Displacement of [3H]BTCP from recombinant human dopamine transporter at 10 uM after 120 mins by scintillation counting analysis relative to control; assay type: ADME; details: probe [3H]BTCP
Sequence of dopamine transporter (DAT) (Q01959 whole entry): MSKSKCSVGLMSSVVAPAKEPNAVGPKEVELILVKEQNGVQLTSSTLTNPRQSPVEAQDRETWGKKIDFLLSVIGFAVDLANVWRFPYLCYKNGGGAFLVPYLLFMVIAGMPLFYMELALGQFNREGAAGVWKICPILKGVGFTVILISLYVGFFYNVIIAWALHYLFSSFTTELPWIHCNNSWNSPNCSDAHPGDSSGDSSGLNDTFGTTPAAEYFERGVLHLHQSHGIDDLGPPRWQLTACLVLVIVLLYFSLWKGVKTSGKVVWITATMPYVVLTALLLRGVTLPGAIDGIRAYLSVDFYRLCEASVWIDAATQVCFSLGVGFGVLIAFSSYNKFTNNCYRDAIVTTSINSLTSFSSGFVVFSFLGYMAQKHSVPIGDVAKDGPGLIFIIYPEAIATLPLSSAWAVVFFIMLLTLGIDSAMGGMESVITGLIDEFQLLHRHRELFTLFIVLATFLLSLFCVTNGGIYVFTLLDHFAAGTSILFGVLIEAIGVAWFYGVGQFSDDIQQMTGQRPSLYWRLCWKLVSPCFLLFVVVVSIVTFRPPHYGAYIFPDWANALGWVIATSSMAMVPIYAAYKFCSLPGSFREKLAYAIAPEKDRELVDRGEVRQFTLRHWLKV

[7] = target: Sodium-dependent dopamine transporter (Homo sapiens, UniProt Q01959); experiment: Inhibition of radioligand binding to human dopamine transporter by radioligand binding assay; assay type: ADME
Sequence of Sodium-dependent dopamine transporter (Homo sapiens, UniProt Q01959) (Q01959 whole entry): as above

[8] = target: T1, Voltage-gated inwardly rectifying potassium channel KCNH2; experiment: Inhibition of human ERG expressed in CHO-K1 cells by automated Patch Clamp method; assay type: cell-based
[9] = Half-life in Sprague-Dawley rat at 10 mg/kg, po measured upto 12 hrs by LC/MS/MS analysis; assay type: ADME, organism-based; details: in vivo
[10] = Cmax in BALB/c mouse at 10 mg/kg, po measured after 24 hrs by LC/MS/MS analysis; assay type: ADME, organism-based; set-up: dose 10 mg/kg, route oral; details: in vivo
[11] = target: Acidic mammalian chitinase (Homo sapiens, UniProt Q9BZP6); experiment: Inhibition of full-length C-terminal his-tagged human acidic mammalian chitinase expressed in CHOK1 cells assessed as reduction in chitinolytic activity using 4-methylumbelliferyl-beta-D-N,N-diacetylchitobioside hydrate as substrate after 60 mins by fluorometric assay
Sequence of Acidic mammalian chitinase (Homo sapiens, UniProt Q9BZP6) (Q9BZP6 whole entry): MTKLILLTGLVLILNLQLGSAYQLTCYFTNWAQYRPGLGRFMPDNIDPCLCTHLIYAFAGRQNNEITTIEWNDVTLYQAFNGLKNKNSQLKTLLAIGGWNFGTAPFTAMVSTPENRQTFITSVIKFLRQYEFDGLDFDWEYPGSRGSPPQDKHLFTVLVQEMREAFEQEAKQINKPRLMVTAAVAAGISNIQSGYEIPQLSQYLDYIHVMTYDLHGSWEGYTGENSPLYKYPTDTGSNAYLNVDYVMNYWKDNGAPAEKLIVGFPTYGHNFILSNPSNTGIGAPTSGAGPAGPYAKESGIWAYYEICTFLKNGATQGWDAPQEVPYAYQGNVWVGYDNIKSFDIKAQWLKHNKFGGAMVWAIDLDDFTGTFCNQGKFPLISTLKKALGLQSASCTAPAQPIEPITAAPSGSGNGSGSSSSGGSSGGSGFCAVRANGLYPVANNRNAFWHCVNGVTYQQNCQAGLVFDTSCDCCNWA

[12] = Half-life in Sprague-Dawley rat at 3 mg/kg, iv administered as single bolus dose measured after 5 to 12 hrs by LC/MS/MS analysis; assay type: ADME, organism-based; details: in vivo
[13] = Half-life in BALB/c mouse at 3 mg/kg, iv administered as single bolus dose measured after 24 hrs by LC/MS/MS analysis; assay type: ADME, organism-based; details: in vivo
[14] = Cmax in Sprague-Dawley rat at 3 mg/kg, iv administered as single bolus dose measured after 5 to 12 hrs by LC/MS/MS analysis; assay type: ADME, organism-based; set-up: dose 3 mg/kg, route intravenous; details: in vivo
[15] = Tmax in Sprague-Dawley rat at 10 mg/kg, po measured upto 12 hrs by LC/MS/MS analysis; assay type: ADME, organism-based; details: in vivo
[16] = target: Sodium-dependent dopamine transporter (Rattus norvegicus, UniProt P23977); experiment: Displacement of [3H]DA from rat dopamine transporter after 15 mins by scintillation counting analysis; assay type: ADME
Sequence of Sodium-dependent dopamine transporter (Rattus norvegicus, UniProt P23977) (P23977 whole entry): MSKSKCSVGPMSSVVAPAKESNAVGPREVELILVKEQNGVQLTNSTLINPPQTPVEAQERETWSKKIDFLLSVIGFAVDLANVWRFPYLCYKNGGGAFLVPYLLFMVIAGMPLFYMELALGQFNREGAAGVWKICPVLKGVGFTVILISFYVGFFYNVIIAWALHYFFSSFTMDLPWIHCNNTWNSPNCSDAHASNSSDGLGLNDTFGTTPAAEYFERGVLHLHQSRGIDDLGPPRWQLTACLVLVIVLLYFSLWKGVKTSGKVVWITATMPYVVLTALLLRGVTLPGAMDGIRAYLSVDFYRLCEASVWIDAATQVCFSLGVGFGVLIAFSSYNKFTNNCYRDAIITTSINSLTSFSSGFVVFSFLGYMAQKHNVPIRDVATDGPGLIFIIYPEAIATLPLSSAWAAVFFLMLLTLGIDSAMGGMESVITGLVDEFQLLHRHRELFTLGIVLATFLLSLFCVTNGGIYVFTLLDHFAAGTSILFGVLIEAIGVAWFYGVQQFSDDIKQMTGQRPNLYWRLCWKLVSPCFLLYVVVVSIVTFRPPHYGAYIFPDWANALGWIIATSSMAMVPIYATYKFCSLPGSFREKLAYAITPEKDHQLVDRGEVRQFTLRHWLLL

[17] = Clearance in BALB/c mouse at 3 mg/kg, iv administered as single bolus dose measured after 24 hrs by LC/MS/MS analysis; assay type: ADME, organism-based; details: in vivo
[18] = AUC (0 to infinity) in Sprague-Dawley rat at 3 mg/kg, iv administered as single bolus dose measured after 5 to 12 hrs by LC/MS/MS analysis; assay type: ADME, organism-based; set-up: dose 3 mg/kg, time infinity, route intravenous; details: in vivo
[19] = Tmax in BALB/c mouse at 10 mg/kg, po measured after 24 hrs by LC/MS/MS analysis; assay type: ADME, organism-based; details: in vivo
[20] = Cmax in BALB/c mouse at 3 mg/kg, iv administered as single bolus dose measured after 24 hrs by LC/MS/MS analysis; assay type: ADME, organism-based; set-up: dose 3 mg/kg, route intravenous; details: in vivo
[21] = Solubility of the compound in water; assay type: physicochemical
Mus musculus = experiment: Antiinflammatory activity in C57BL/6 mouse model of house-dust mite induced pulmonary inflammation assessed as reduction in total CD45 positive cells in bronchoalveolar lavage fluid at 50 mg/kg, po administered once daily starting from day 7 post house-dust mite challenge and measured on day 19 by flow cytometric method relative to control; assay type: functional; set-up: scale not given: the % may be the effect or the level left
[22] = Genotoxicity in Salmonella typhimurium; assay type: toxicity; details: salmonella enterica subsp. enterica serovar typhimurium
[23] = AUC (0 to infinity) in Sprague-Dawley rat at 10 mg/kg, po measured upto 12 hrs by LC/MS/MS analysis; assay type: ADME, organism-based; set-up: dose 10 mg/kg, route oral, time infinity; details: in vivo
[24] = AUC (0 to infinity) in BALB/c mouse at 10 mg/kg, po measured after 24 hrs by LC/MS/MS analysis; assay type: ADME, organism-based; set-up: dose 10 mg/kg, route oral, time infinity; details: in vivo
[25] = Oral bioavailability in Sprague-Dawley rat at 10 mg/kg measured upto 12 hrs by LC/MS/MS analysis; assay type: ADME, organism-based; details: in vivo
[26] = Drug uptake in BALB/c mouse brain at 10 mg/kg, po administered as single dose after 2 hrs by LC/MS/MS analysis; assay type: ADME, organism-based; details: in vivo
[27] = AUC (0 to infinity) in BALB/c mouse at 3 mg/kg, iv administered as single bolus dose measured after 24 hrs by LC/MS/MS analysis; assay type: ADME, organism-based; set-up: dose 3 mg/kg, time infinity, route intravenous; details: in vivo
[28] = Half-life in BALB/c mouse at 10 mg/kg, po measured after 24 hrs by LC/MS/MS analysis; assay type: ADME, organism-based; details: in vivo
[29] = Cmax in Sprague-Dawley rat at 10 mg/kg, po measured upto 12 hrs by LC/MS/MS analysis; assay type: ADME, organism-based; set-up: dose 10 mg/kg, route oral; details: in vivo
[30] = Oral bioavailability in BALB/c mouse at 10 mg/kg measured after 24 hrs by LC/MS/MS analysis; assay type: ADME, organism-based; details: in vivo

What does the source list for Nc1n[nH]c(N2CCC(N(CCc3ccc(Cl)cc3)C3COC3)CC2)n1?
IC50 (Chitotriosidase-1 [1]): 5.5 µM; IC50 [2]: 27 nM; IC50 (Chitotriosidase-1 [3]): 180 nM; IC50 [4]: 4.4 µM

For Nc1n[nH]c(N2CCC(N3CCCC(c4ccc(Cl)cc4)C3)CC2)n1 (centres undefined), which IC50 (Chitotriosidase-1 [1]) is on record?
Its IC50 is 19 µM.

What about the IC50 [2] of the same molecule?
Its IC50 is 335 nM.

And the IC50 (Chitotriosidase-1 [3])?
Its IC50 is 1850 nM.

What does the source list for CO[C@H](C)CN(CCc1ccc(Cl)cc1)C1CCN(c2nc(N)n[nH]2)CC1?
IC50 (Chitotriosidase-1 [1]): 12.5 µM; IC50 [2]: 110 nM; IC50 (Chitotriosidase-1 [3]): 530 nM; IC50 [4]: 6.4 µM

Which logD [5] does the source give for Nc1nnc(N2CCC(N3C[C@@H](O)C[C@@H]3Cc3ccc(Cl)cc3)CC2)[nH]1 here?
Its logD is 0.81.

What about the IC50 (Chitotriosidase-1 [1]) of the same molecule?
The IC50 was 0.52 µM.

And the IC50 [2]?
Its IC50 is 170 nM.

And the IC50 [4]?
The IC50 was 13.2 µM.

With CC(C)(O)CN(CCc1ccc(Cl)cc1)C1CCN(c2nc(N)n[nH]2)CC1 as the molecule, how does the IC50 (Chitotriosidase-1 [1]) read?
The IC50 was 4.7 µM.

And the IC50 [2]?
The IC50 was 73 nM.

What about the IC50 (Chitotriosidase-1 [3]) of the same molecule?
Its IC50 is 395 nM.

And the IC50 [4]?
Its IC50 is 19 µM.

Which IC50 (Chitotriosidase-1 [1]) does the source give for CNS(=O)(=O)CCN(CCc1ccc(Cl)cc1)C1CCN(c2nc(N)n[nH]2)CC1 here?
Its IC50 is 7.55 µM.

And the IC50 [2]?
The IC50 was 21 nM.

What about the inhibition at 2 h, 10 µM [6] of the same molecule?
Its inhibition at 2 h, 10 µM is 13%.

And the IC50 (Chitotriosidase-1 [3])?
The IC50 was 870 nM.

For CS(=O)(=O)NCCN(CCc1ccc(Cl)cc1)C1CCN(c2nc(N)n[nH]2)CC1, which IC50 (Chitotriosidase-1 [1]) is on record?
Its IC50 is 12.5 µM.

What about the IC50 [2] of the same molecule?
Its IC50 is 22 nM.

What about the inhibition at 2 h, 10 µM [6] of the same molecule?
The inhibition at 2 h, 10 µM was 4%.

And the IC50 (Chitotriosidase-1 [3])?
The IC50 was 1200 nM.

And the IC50 [4]?
The IC50 was 7.2 µM.

Which IC50 (Chitotriosidase-1 [1]) does the source give for C[C@@H](O)CN(CCc1ccc(Cl)cc1)C1CCN(c2nc(N)n[nH]2)CC1 here?
Its IC50 is 6.8 µM.

And the IC50 (Chitotriosidase-1 [3])?
Its IC50 is 330 nM.

What about the IC50 [4] of the same molecule?
The IC50 was 6.1 µM.

What does the source list for Nc1nnc(N2CCC(N3CCOC[C@@H]3Cc3ccc(Cl)cc3)CC2)[nH]1?
IC50 [7]: 300 nM; IC50 [8]: 12 µM; logD [5]: 1.96; half-life [9]: 128 min; Cmax [10]: 2390 ng/mL; IC50 [11]: 22 nM; half-life [12]: 477 min; half-life [13]: 150 min; IC50 (Chitotriosidase-1 [1]): 0.074 µM; Cmax [14]: 16500 ng/mL; Tmax [15]: 1.5 h; IC50 [16]: 7.9 µM; clearance [17]: 10.5 mL/min/kg; AUC [18]: 4.98 mg·h/L; Tmax [19]: 1 h; Cmax [20]: 1590 ng/mL; solubility [21]: 310 µg/mL (≈ 823 µM); IC50 [2]: 30 nM; inhibition at 2 h, 10 µM [6]: 95%; IC50 (Chitotriosidase-1 [3]): 48 nM; Activity (Mus musculus): 37%; Activity [22]: Non-Toxic; AUC(0-inf) [23]: 8010 ng·h/mL; AUC(0-inf) [24]: 11100 ng·h/mL; bioavailability [25]: 48%; IC50 [4]: 39 µM; Drug uptake [26]: 6.8%; AUC(0-inf) [27]: 4760 ng·h/mL; half-life [28]: 161 min; Cmax [29]: 1560 ng/mL; bioavailability [30]: 70%

Which IC50 (Chitotriosidase-1 [1]) does the source give for Nc1n[nH]c(N2CCC(N(CCc3ccc(Cl)cc3)CC3CCCCO3)CC2)n1 (centres undefined) here?
Its IC50 is 0.75 µM.

What about the IC50 [2] of the same molecule?
The IC50 was 56 nM.

And the inhibition at 2 h, 10 µM [6]?
Its inhibition at 2 h, 10 µM is 50%.

What about the IC50 (Chitotriosidase-1 [3]) of the same molecule?
Its IC50 is 21 nM.

What about the IC50 [4] of the same molecule?
Its IC50 is 11 µM.

What does the source list for C[C@H](O)CN(CCc1ccc(Cl)cc1)C1CCN(c2nc(N)n[nH]2)CC1?
IC50 (Chitotriosidase-1 [1]): 2.35 µM; IC50 (Chitotriosidase-1 [3]): 145 nM; IC50 [4]: 14 µM

For CO[C@H]1CN(C2CCN(c3nnc(N)[nH]3)CC2)[C@H]1Cc1ccc(Cl)cc1, which logD [5] is on record?
Its logD is 1.55.

What about the IC50 (Chitotriosidase-1 [1]) of the same molecule?
Its IC50 is 5.55 µM.

And the IC50 [2]?
Its IC50 is 485 nM.

What about the IC50 (Chitotriosidase-1 [3]) of the same molecule?
Its IC50 is 580 nM.

What about the IC50 [4] of the same molecule?
Its IC50 is 0.34 µM.

Which logD [5] does the source give for CO[C@@H]1C[C@H](Cc2ccc(Cl)cc2)N(C2CCN(c3n[nH]c(N)n3)CC2)C1 here?
The logD was 1.56.

What about the IC50 (Chitotriosidase-1 [1]) of the same molecule?
The IC50 was 0.255 µM.

What about the IC50 [2] of the same molecule?
The IC50 was 21 nM.

What about the IC50 (Chitotriosidase-1 [3]) of the same molecule?
Its IC50 is 44 nM.
